From ChEMBL document CHEMBL5725756, “Bifunctional compounds and use for reducing uric acid levels” (2018)

Target: Xanthine dehydrogenase/oxidase (Homo sapiens, UniProt P47989)
Assay: xanthine oxidase activity: Xanthine oxidase inhibition was determined using a standard fluorescence-based assay for xanthine oxidase activity (McHale A, Grimes H, Coughlan M P: Int J Biochem. 10:317-9, 1979) with minor variations. […] Experiments on test compounds were performed in triplicate in multi-well plates using 10 concentrations of each compound that ranged over a 3-fold dilution.

Xanthine dehydrogenase/oxidase, sequence (P47989 whole entry): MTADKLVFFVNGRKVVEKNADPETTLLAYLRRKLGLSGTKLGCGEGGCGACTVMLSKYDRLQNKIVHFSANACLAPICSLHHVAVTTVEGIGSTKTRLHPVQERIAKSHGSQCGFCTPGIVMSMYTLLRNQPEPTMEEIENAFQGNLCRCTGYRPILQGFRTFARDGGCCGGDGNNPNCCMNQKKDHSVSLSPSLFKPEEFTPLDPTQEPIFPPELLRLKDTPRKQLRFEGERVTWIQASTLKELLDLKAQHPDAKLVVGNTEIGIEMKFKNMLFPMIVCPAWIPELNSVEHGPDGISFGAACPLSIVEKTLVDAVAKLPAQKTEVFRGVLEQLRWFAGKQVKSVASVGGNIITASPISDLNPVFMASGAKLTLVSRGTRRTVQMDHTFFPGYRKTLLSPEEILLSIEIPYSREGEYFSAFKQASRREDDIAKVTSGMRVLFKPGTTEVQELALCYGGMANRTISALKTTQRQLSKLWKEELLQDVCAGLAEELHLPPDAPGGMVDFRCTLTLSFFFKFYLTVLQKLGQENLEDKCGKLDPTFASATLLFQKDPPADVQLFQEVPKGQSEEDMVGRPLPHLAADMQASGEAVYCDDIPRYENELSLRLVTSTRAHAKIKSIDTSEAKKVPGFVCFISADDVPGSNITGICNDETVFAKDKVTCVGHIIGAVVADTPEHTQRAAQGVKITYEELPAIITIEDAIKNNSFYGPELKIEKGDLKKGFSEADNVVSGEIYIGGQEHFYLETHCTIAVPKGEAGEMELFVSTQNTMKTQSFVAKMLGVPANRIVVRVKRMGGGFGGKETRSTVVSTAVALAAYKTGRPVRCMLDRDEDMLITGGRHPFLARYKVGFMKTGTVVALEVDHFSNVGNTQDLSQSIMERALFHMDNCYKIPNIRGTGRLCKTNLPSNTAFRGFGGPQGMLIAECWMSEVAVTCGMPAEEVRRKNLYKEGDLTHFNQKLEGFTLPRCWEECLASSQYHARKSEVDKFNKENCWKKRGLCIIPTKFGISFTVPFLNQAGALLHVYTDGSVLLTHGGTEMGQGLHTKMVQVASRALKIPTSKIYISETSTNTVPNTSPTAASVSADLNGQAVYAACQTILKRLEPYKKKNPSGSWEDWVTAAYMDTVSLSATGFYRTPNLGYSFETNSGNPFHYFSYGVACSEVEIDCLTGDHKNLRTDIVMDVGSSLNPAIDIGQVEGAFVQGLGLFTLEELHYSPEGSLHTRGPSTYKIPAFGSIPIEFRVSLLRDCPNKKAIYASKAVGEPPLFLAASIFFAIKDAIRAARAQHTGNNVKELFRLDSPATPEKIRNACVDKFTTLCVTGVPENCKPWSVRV

O=C(O)CSc1nnc(Br)n1-c1ccc(C2CC2)c2ccccc12
IC50: > 300 µM
